According to PubChem BioAssay AID1438 (Sanford-Burnham Center for Chemical Genomics, 2008):

Biological target: Runt-related transcription factor 1 (Homo sapiens) + Core-binding factor subunit beta (Homo sapiens) (UniProt Q01196+Q13951)
Assay: inhibitors of RUNX1 Runt–CBFb-SMMHC binding, biochemical, TR-FRET (AID 1438)
Settings: TR-FRET Runt domain–CBFb-SMMHC binding

Sequence of Runt-related transcription factor 1 (Homo sapiens) + Core-binding factor subunit beta (Homo sapiens) (Q01196 whole entry, looked up): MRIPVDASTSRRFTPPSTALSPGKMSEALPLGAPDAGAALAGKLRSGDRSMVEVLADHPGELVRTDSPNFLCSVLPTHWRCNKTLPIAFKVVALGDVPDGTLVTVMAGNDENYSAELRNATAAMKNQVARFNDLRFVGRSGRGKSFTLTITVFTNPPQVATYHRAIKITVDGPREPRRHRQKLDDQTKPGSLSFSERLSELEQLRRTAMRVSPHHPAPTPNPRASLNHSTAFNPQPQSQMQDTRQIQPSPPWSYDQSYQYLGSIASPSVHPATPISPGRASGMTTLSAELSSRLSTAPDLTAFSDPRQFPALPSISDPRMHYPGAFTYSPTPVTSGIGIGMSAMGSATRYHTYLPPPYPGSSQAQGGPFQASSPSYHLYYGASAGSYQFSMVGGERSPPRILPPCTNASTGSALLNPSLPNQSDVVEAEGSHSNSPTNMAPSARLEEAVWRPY
Sequence of Runt-related transcription factor 1 (Homo sapiens) + Core-binding factor subunit beta (Homo sapiens) (Q13951 whole entry, looked up): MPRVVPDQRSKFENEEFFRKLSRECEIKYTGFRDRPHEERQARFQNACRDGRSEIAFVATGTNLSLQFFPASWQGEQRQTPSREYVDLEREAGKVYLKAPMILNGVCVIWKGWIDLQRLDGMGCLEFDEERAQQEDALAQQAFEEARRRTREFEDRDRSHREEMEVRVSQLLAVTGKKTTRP

CN1CCc2cccc3c2[C@@H]1Cc1ccc(O)c(O)c1-3
IC50: 7.12 µM
